Reference: US20260364078A1, “PURINE NUCLEOSIDE PHOSPHORYLASE INHIBITORS FOR THE TREATMENT OF METABOLIC SYNDROME AND ASSOCIATED CONDITIONS” (METASHAPE PHARMA AG, priority 2022, published 2026)

Tests used:
Assay type in all cases: in vivo, C57/BL6J mice
[1] = tested on: Diet Induced Obesity (DIO) mouse model; assay: Example 1: low and intermittent dosing in DIO mouse model; conditions: 2 mg/kg p.o., 3 days a week, 28 days
From the text: The aim of the preliminary study is to determine the effect of low and intermittent dosing of ulodesine hemi glutarate on the following parameters: weight gain, food intake, fasting blood glucose concentration and serum cholesterol. The study assesses ulodesine hemi glutarate efficacy on the listed parameters in the DIO mouse model of obesity and metabolic dysfunction.
Method: C57/BL6J mice were fed obesogenic diet D12492 (60 kcal % fat) from age 6 weeks. Eighteen week old mice (approximately 40 g) were either treated with vehicle (control) or ulodesine hemi glutarate at 2 mg/kg for 3 days a week (days 1, 2 and 3) given orally, over a 28 day period. On day −2 and on day 28, animals were fasted for 6 hr by withdrawing food only, and blood was collected for both blood glucose and cholesterol measurements.

DIO mouse model = assay: Example 2: low and intermittent dosing in DIO mouse model; conditions: 2 mg/kg p.o., 3 days a week
From the text: The aim of this study is to determine the effect of a low and intermittent dosing regime of ulodesine hemi glutarate on the following parameters: weight gain, food intake, fasting blood glucose concentration, serum insulin, serum cholesterol, plasma liver enzymes aspartate aminotransferase (AST) and alanine transaminase (ALT), inguinal white adipose tissue (iWAT), BAT; inosine in plasma and NAD+ in whole blood, and expression of lipogenesis (fatty acid synthesis) markers in iWAT and thermogenic markers in BAT. The study will assess ulodesine hemi glutarate efficacy on the listed parameters in the DIO mouse model of obesity and metabolic dysfunction.
(§1) Method: C57/BL6J mice were fed obesogenic diet D12492 (60 kcal % fat) from age 6 weeks. Nineteen week old mice (approximately 50 g) were either treated with vehicle (control) or ulodesine hemi glutarate at 2 mg/kg for 3 days a week (days 1, 2 and 3), given orally, over a 28 day period. On day minus 2 and on day 28, animals were fasted for 6 hr (only food withdrawn) and blood was collected for both blood glucose and cholesterol. On day 28 plasma liver enzymes (AST and ALT) and insulin were determined and additional plasma and whole blood was frozen and used for inosine and NAD+ measurement. BAT and iWAT was collected at the end of the study, weighed and quantitative PCR was performed for the lipogenesis markers Stearoyl CoA desaturase 1 (SCD-1) and fatty acid synthetase (FAS) and the thermogenesis marker uncoupling protein 1 (UCP-1). Inosine and NAD+ levels in stored plasma and whole blood respectively were determined by LC/MS/MS.

[2] = tested on: uncoupling protein 1 (UCP-1); assay: Example 2: quantitative PCR of thermogenesis marker in BAT; conditions: 2 mg/kg p.o., 3 days a week, 28 days; vs vehicle
Method: as §1

[3] = tested on: Stearoyl CoA desaturase 1 (SCD-1); assay: Example 2: quantitative PCR of lipogenesis marker SCD-1; conditions: 2 mg/kg p.o., 3 days a week, 28 days; vs vehicle
Method: as §1

[4] = tested on: fatty acid synthetase (FAS); assay: Example 2: quantitative PCR of lipogenesis marker FAS; conditions: 2 mg/kg p.o., 3 days a week, 28 days; vs vehicle
Method: as §1

lymphocytes = assay: Example 4: total lymphocytes by flow cytometry in DIO mouse model; conditions: 3 days a week, 4 weeks
Method: The aim of this study is to determine the effect of increasing doses of ulodesine hemi glutarate on lymphocytes in whole blood.
Method: C57/BL6J mice were fed obesogenic diet D12492 (60 kcal % fat) from age 6 weeks. Eighteen weeks old mice (approximately 40 g) were either treated with vehicle (control) or ulodesine hemi glutarate at 1, 2, 5, and 10 mg/kg for only 3 days a week (days 1, 2 and 3) given orally for 4 weeks. At the end of four weeks, flow cytometry was used to enumerate total lymphocytes.

## O=c1[nH]cnc2c(CN3C[C@H](CO)[C@@H](O)C3)c[nH]c12 [ulodesine hemi glutarate]
[1]
  toxicity or adverse effects: no signs of any toxicity or adverse effects
[1]; vs control
  fasting blood glucose: decrease in blood glucose
  serum cholesterol: decrease in blood glucose and serum cholesterol
[1]; ~40 g mice, vs control
  weight gain: significant decrease in weight gain
DIO mouse model; 28 days
  insulin sensitivity: improves insulin sensitivity
  toxicity or adverse effects: no signs of any toxicity or adverse effects
DIO mouse model; 28 days, ~50 g mice, vs control
  decrease in weight gain: not significantly different from the control group
DIO mouse model; day 28, LC/MS/MS
  NAD+ in whole blood: significantly elevated
  inosine in plasma: significantly elevated
[2]
  expression of thermogenic marker UCP-1 in BAT tissue: increase in expression
[3]
  expression of lipogenesis marker SCD-1 in WAT tissue: decrease
[4]
  expression of lipogenesis marker FAS in WAT tissue: decrease
lymphocytes; 1 mg/kg p.o.
  number of lymphocytes: does not impact the number of lymphocytes
lymphocytes; 2 mg/kg p.o.
  number of lymphocytes: does not impact the number of lymphocytes
lymphocytes; 5 mg/kg p.o.
  number of lymphocytes: not significant at doses of 5 mg and 10 mg/kg, there appeared to be an observable decrease in lymphocytes
lymphocytes; 10 mg/kg p.o.
  number of lymphocytes: not significant at doses of 5 mg and 10 mg/kg, there appeared to be an observable decrease in lymphocytes
